Laboratory results: PubChem BioAssay AID2060884 (Molecular Pharmacology Branch, DTP, NCI, 2025)
“And” between values parts separate entries of the source, which are not always exact repeats. Equal values may be shown once.

Test system: NCI-H929 complex spheroids, viability % test/control
Test: Anticancer human tumor NCI-H929 cell line growth inhibition [RAS];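 further: compound exposure lasted seven days before viability was read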;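 on viability, T/C: 100% = DMSO vehicle control viability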
Conditions: for viability, T/C: stronger effect = lower value
Outline: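 Multi-cell-type spheroids: tumor cells plus HUVEC endothelial cells and mesenchymal stem cells. RAS-pathway inhibitors were combined with targeted agents, each dosed in half-log steps down from clinical Cmax, or from 10 microM when Cmax was unknown.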

NC1c2ccccc2OC12CCN(c1cnc3c(N4CCCc5ncccc54)n[nH]c3n1)CC2 (configuration not stated) + CCn1c(-c2cc(N3CCN(C)CC3)cnc2C(C)OC)c2c3cc(ccc31)-c1csc(n1)CC(NC(=O)C1CC1C)C(=O)N1CCCC(N1)C(=O)OCC(C)(C)C2 showed an IC50 (curve of first compound, second compound 0.000949 µM) greater than 10000 nM, an IC50 (curve of first compound, second compound 0.003 µM) greater than 10000 nM and an IC50 (curve of first compound, second compound 0.00949 µM) greater than 10000 nM. It also gave an IC50 (curve of first compound, second compound 0.03 µM) of less than 31.6 nM, an IC50 (curve of first compound, second compound 0.0949 µM) of less than 31.6 nM and an IC50 (curve of first compound, second compound 0.3 µM) of less than 31.6 nM. It also gave a viability, T/C (second compound 0.000949 µM, first compound 0.0316 µM) of 107%, a viability, T/C (second compound 0.000949 µM, first compound 0.1 µM) of 104% and a viability, T/C (second compound 0.000949 µM, first compound 0.316 µM) of 108%. It also gave a viability, T/C (second compound 0.000949 µM, first compound 1 µM) of 108%, a viability, T/C (second compound 0.000949 µM, first compound 3.16 µM) of 113% and a viability, T/C (second compound 0.000949 µM, first compound 10 µM) of 78.6%. The viability, T/C (second compound 0.003 µM, first compound 0.0316 µM) was 107%, the viability, T/C (second compound 0.003 µM, first compound 0.1 µM) was 108% and the viability, T/C (second compound 0.003 µM, first compound 0.316 µM) was 109%. For the same molecule, the viability, T/C (second compound 0.003 µM, first compound 1 µM) was 111%, the viability, T/C (second compound 0.003 µM, first compound 3.16 µM) was 109% and the viability, T/C (second compound 0.003 µM, first compound 10 µM) was 80.9%. The viability, T/C (second compound 0.00949 µM, first compound 0.0316 µM) was 121%, the viability, T/C (second compound 0.00949 µM, first compound 0.1 µM) was 128% and the viability, T/C (second compound 0.00949 µM, first compound 0.316 µM) was 128%. For the same molecule, the viability, T/C (second compound 0.00949 µM, first compound 1 µM) was 125%, the viability, T/C (second compound 0.00949 µM, first compound 3.16 µM) was 121% and the viability, T/C (second compound 0.00949 µM, first compound 10 µM) was 87.8%. It also gave a viability, T/C (second compound 0.03 µM, first compound 0.0316 µM) of 15.4%, a viability, T/C (second compound 0.03 µM, first compound 0.1 µM) of 13.8% and a viability, T/C (second compound 0.03 µM, first compound 0.316 µM) of 14.9%. The viability, T/C (second compound 0.03 µM, first compound 1 µM) was 12.7%, the viability, T/C (second compound 0.03 µM, first compound 3.16 µM) was 18.3% and the viability, T/C (second compound 0.03 µM, first compound 10 µM) was 12%. The viability, T/C (second compound 0.0949 µM, first compound 0.0316 µM) was 3.25%, the viability, T/C (second compound 0.0949 µM, first compound 0.1 µM) was 2.4% and the viability, T/C (second compound 0.0949 µM, first compound 0.316 µM) was 2.09%. The viability, T/C (second compound 0.0949 µM, first compound 1 µM) was 2.07%, the viability, T/C (second compound 0.0949 µM, first compound 3.16 µM) was 1.88% and the viability, T/C (second compound 0.0949 µM, first compound 10 µM) was 0.76%. It also gave a viability, T/C (second compound 0.3 µM, first compound 0.0316 µM) of 1.75%, a viability, T/C (second compound 0.3 µM, first compound 0.1 µM) of 1.24% and a viability, T/C (second compound 0.3 µM, first compound 0.316 µM) of 0.73%. It also gave a viability, T/C (second compound 0.3 µM, first compound 1 µM) of 0.89%, a viability, T/C (second compound 0.3 µM, first compound 3.16 µM) of 1.51% and a viability, T/C (second compound 0.3 µM, first compound 10 µM) of 0.19%.
In the case of CCN1CCN(Cc2ccc(Nc3ncc(F)c(-c4cc(F)c5nc(C)n(C(C)C)c5c4)n3)nc2)CC1, the viability, T/C (compound 0.00316 µM) is reported as 106% [middle of 4 runs], the viability, T/C (compound 0.01 µM) is reported as 101% (2×) and 100% and 102% and the viability, T/C (compound 0.0316 µM) is reported as 108% [middle of 4 runs]. The viability, T/C (compound 0.1 µM) was 107% (2×) and 98.7% and 108%, the viability, T/C (compound 0.316 µM) was 117% (2×) and 102% and 115% and the IC50 (curve of compound) was > 1000 nM and 774 nM and 695 nM.
CC(Nc1ccc2c(c1)OCCn1cc(N3C(=O)OCC3C(F)F)nc1-2)C(N)=O (configuration not stated) was tested, and the viability, T/C (compound 0.0316 µM) was 106% [middle of 4 runs], the viability, T/C (compound 0.1 µM) was 102% [middle of 4 runs] and the viability, T/C (compound 0.316 µM) was 107% (2×) and 97.8% and 109%. For the same molecule, the viability, T/C (compound 1 µM) was 108% [middle of 4 runs] and the IC50 (curve of compound) was > 10000 nM and 6140 nM and 6230 nM.
CCc1c2c(nc3ccc(O)cc13)-c1cc3c(c(=O)n1C2)COC(=O)[C@]3(O)CC + C=CC(=O)N1CCN(c2nc(OCC3CCCN3C)nc3c(F)c(-c4nc(N)cc(C)c4C(F)(F)F)c(Cl)cc23)C(C)C1 was tested, and the IC50 (curve of first compound, second compound 0.00316 µM) was 1.85 nM, the IC50 (curve of first compound, second compound 0.01 µM) was 1.94 nM and the IC50 (curve of first compound, second compound 0.0316 µM) was 1.99 nM. For the same molecule, the IC50 (curve of first compound, second compound 0.1 µM) was 1.99 nM, the IC50 (curve of first compound, second compound 0.316 µM) was 2.03 nM and the IC50 (curve of first compound, second compound 1 µM) was 1.94 nM. For the same molecule, the viability, T/C (second compound 0.00316 µM, first compound 0.000949 µM) was 106%, the viability, T/C (second compound 0.00316 µM, first compound 0.003 µM) was 9.93% and the viability, T/C (second compound 0.00316 µM, first compound 0.00949 µM) was 1.39%. It also gave a viability, T/C (second compound 0.00316 µM, first compound 0.03 µM) of 1.87%, a viability, T/C (second compound 0.00316 µM, first compound 0.0949 µM) of 2.37% and a viability, T/C (second compound 0.00316 µM, first compound 0.3 µM) of 1.53%. The viability, T/C (second compound 0.01 µM, first compound 0.000949 µM) was 101%, the viability, T/C (second compound 0.01 µM, first compound 0.003 µM) was 18.9% and the viability, T/C (second compound 0.01 µM, first compound 0.00949 µM) was 2.06%. It also gave a viability, T/C (second compound 0.01 µM, first compound 0.03 µM) of 3.03%, a viability, T/C (second compound 0.01 µM, first compound 0.0949 µM) of 2.18% and a viability, T/C (second compound 0.01 µM, first compound 0.3 µM) of 1.15%. For the same molecule, the viability, T/C (second compound 0.0316 µM, first compound 0.000949 µM) was 103%, the viability, T/C (second compound 0.0316 µM, first compound 0.003 µM) was 20.9% and the viability, T/C (second compound 0.0316 µM, first compound 0.00949 µM) was 1.84%. The viability, T/C (second compound 0.0316 µM, first compound 0.03 µM) was 2.69%, the viability, T/C (second compound 0.0316 µM, first compound 0.0949 µM) was 2.18% and the viability, T/C (second compound 0.0316 µM, first compound 0.3 µM) was 0.6%. The viability, T/C (second compound 0.1 µM, first compound 0.000949 µM) was 104%, the viability, T/C (second compound 0.1 µM, first compound 0.003 µM) was 19.8% and the viability, T/C (second compound 0.1 µM, first compound 0.00949 µM) was 1.52%. For the same molecule, the viability, T/C (second compound 0.1 µM, first compound 0.03 µM) was 1.4%, the viability, T/C (second compound 0.1 µM, first compound 0.0949 µM) was 1.53% and the viability, T/C (second compound 0.1 µM, first compound 0.3 µM) was 0.65%. For the same molecule, the viability, T/C (second compound 0.316 µM, first compound 0.000949 µM) was 107%, the viability, T/C (second compound 0.316 µM, first compound 0.003 µM) was 20.4% and the viability, T/C (second compound 0.316 µM, first compound 0.00949 µM) was 1.92%. For the same molecule, the viability, T/C (second compound 0.316 µM, first compound 0.03 µM) was 2.44%, the viability, T/C (second compound 0.316 µM, first compound 0.0949 µM) was 1.37% and the viability, T/C (second compound 0.316 µM, first compound 0.3 µM) was 0.74%. It also gave a viability, T/C (second compound 1 µM, first compound 0.000949 µM) of 116%, a viability, T/C (second compound 1 µM, first compound 0.003 µM) of 9.86% and a viability, T/C (second compound 1 µM, first compound 0.00949 µM) of 2.04%. It also gave a viability, T/C (second compound 1 µM, first compound 0.03 µM) of 2.87%, a viability, T/C (second compound 1 µM, first compound 0.0949 µM) of 1.52% and a viability, T/C (second compound 1 µM, first compound 0.3 µM) of 0.6%.
In the case of C#Cc1c(F)ccc2cc(O)cc(-c3ncc4c(N5CC6CCC(C5)N6)nc(OCC56CCCN5CC(F)C6)nc4c3F)c12 (configuration not stated), the viability, T/C (compound 0.0316 µM) is reported as 102% [middle of 8 runs], the viability, T/C (compound 0.1 µM) is reported as 103% [middle of 8 runs] and the viability, T/C (compound 0.316 µM) is reported as 101% [middle of 8 runs]. The viability, T/C (compound 1 µM) was 97% [middle of 8 runs], the viability, T/C (compound 3.16 µM) was 97.6% [middle of 8 runs] and the viability, T/C (compound 10 µM) was 96.6% [middle of 8 runs]. It also gave an IC50 (compound alone, run of 09/09/2024) greater than 10000 nM.
